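Cultured in 96-well plates, cells were exposed to test compound for 48 hours across five concentrations. Definition used: TGI = concentration required for complete inhibition of growth.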
Legend:
Assay in all cases: inhibition of tumour cell growth, NCI panel, 48 h
[1] = test system: 786-0 renal
[2] = test system: A498 renal
[3] = test system: A549 NSCLC
[4] = test system: ACHN renal
[5] = test system: CAKI-1 renal
[6] = test system: CCRF-CEM leukemia
[7] = test system: COLO 205 colon
[8] = test system: DLD-1 colon
[9] = test system: DMS 114 small cell lung
[10] = test system: DMS 273 small cell lung
[11] = test system: EKVX NSCLC
[12] = test system: HCC-2998 colon
[13] = test system: HCT-116 colon
[14] = test system: HCT-15 colon
[15] = test system: HL-60(TB) leukemia
[16] = test system: HOP-18 NSCLC
[17] = test system: HOP-62 NSCLC
[18] = test system: HT29 colon
[19] = test system: IGROV1 ovarian
[20] = test system: K-562 leukemia
[21] = test system: KM12 colon
[22] = test system: KM20L2 colon
[23] = test system: LOX IMVI melanoma
[24] = test system: LXFL 529 NSCLC
[25] = test system: M14 melanoma
[26] = test system: M19-MEL melanoma
[27] = test system: MALME-3M melanoma
[28] = test system: MOLT-4 leukemia
[29] = test system: NCI-H226 lung
[30] = test system: NCI-H23 lung
[31] = test system: NCI-H460 lung
[32] = test system: NCI-H522 lung
[33] = test system: OVCAR-3 ovarian
[34] = test system: OVCAR-4 ovarian
[35] = test system: OVCAR-5 ovarian
[36] = test system: OVCAR-8 ovarian
[37] = test system: RPMI-8226 leukemia
[38] = test system: RXF 393 renal
[39] = test system: SF-268 CNS
[40] = test system: SF-295 CNS
[41] = test system: SF-539 CNS
[42] = test system: SK-MEL-2 melanoma
[43] = test system: SK-MEL-28 melanoma
[44] = test system: SK-MEL-5 melanoma
[45] = test system: SK-OV-3 ovarian
[46] = test system: SN12C renal
[47] = test system: SNB-19 CNS
[48] = test system: SNB-75 CNS
[49] = test system: SNB-78 CNS
[50] = test system: SR leukemia
[51] = test system: SW-620 colon
[52] = test system: TK-10 renal
[53] = test system: U251 CNS
[54] = test system: UACC-257 melanoma
[55] = test system: UACC-62 melanoma
[56] = test system: UO-31 renal
[57] = test system: XF 498 CNS
[58] = test system: RXF-631 renal

COC(=O)C(C(=O)C(=O)Nc1ccccc1C)c1nc2ccc([N+](=O)[O-])cc2[nH]c1=O (centres undefined)
TGI [1]: > 100 µM | TGI [2]: > 100 µM | TGI [3]: > 100 µM | TGI [4]: > 100 µM | TGI [5]: > 100 µM | TGI [6]: > 100 µM | TGI [7]: > 100 µM | TGI [8]: > 100 µM | TGI [9]: > 100 µM | TGI [10]: > 100 µM | TGI [11]: > 100 µM | TGI [12]: > 100 µM | TGI [13]: > 100 µM | TGI [14]: > 100 µM | TGI [15]: > 100 µM | TGI [16]: > 100 µM | TGI [17]: > 100 µM | TGI [18]: > 100 µM | TGI [19]: > 100 µM | TGI [20]: > 100 µM | TGI [21]: > 100 µM | TGI [22]: > 100 µM | TGI [23]: > 100 µM | TGI [24]: > 100 µM | TGI [25]: > 100 µM | TGI [26]: > 100 µM | TGI [27]: > 100 µM | TGI [28]: > 100 µM | TGI [29]: > 100 µM | TGI [30]: > 100 µM | TGI [31]: > 100 µM | TGI [32]: > 100 µM | TGI [33]: > 100 µM | TGI [34]: > 100 µM | TGI [35]: > 100 µM | TGI [36]: > 100 µM | TGI [37]: > 100 µM | TGI [38]: > 100 µM | TGI [39]: > 100 µM | TGI [40]: > 100 µM | TGI [41]: > 100 µM | TGI [42]: > 100 µM | TGI [43]: > 100 µM | TGI [44]: > 100 µM | TGI [45]: > 100 µM | TGI [46]: > 100 µM | TGI [47]: > 100 µM | TGI [48]: > 100 µM | TGI [49]: > 100 µM | TGI [50]: > 100 µM | TGI [51]: > 100 µM | TGI [52]: > 100 µM | TGI [53]: > 100 µM | TGI [54]: > 100 µM | TGI [55]: > 100 µM | TGI [56]: > 100 µM | TGI [57]: > 100 µM

CC1=C(C(=O)Nc2ccc(C)cc2)C(c2cccc([N+](=O)[O-])c2)C(C(=O)Nc2ccc(C)cc2)=C(C)N1
TGI [1]: > 100 µM | TGI [2]: 55.3 µM | TGI [3]: > 100 µM | TGI [4]: 80.8 µM | TGI [5]: > 100 µM | TGI [6]: 50.7 µM | TGI [7]: 28.1 µM | TGI [8]: > 100 µM | TGI [9]: 74.2 µM | TGI [10]: > 100 µM | TGI [11]: 86.1 µM | TGI [12]: > 100 µM | TGI [13]: > 100 µM | TGI [14]: > 100 µM | TGI [15]: 39.4 µM | TGI [16]: 80.2 µM | TGI [17]: 89.4 µM | TGI [18]: 49.4 µM | TGI [19]: 66.8 µM | TGI [20]: 63.5 µM | TGI [21]: 40.2 µM | TGI [22]: 48 µM | TGI [23]: 32.3 µM | TGI [24]: > 100 µM | TGI [25]: 49.2 µM | TGI [26]: 63.4 µM | TGI [27]: 77.2 µM | TGI [28]: 38.5 µM | TGI [29]: > 100 µM | TGI [30]: 70.4 µM | TGI [31]: 60.8 µM | TGI [32]: 93.8 µM | TGI [33]: 95.5 µM | TGI [34]: > 100 µM | TGI [35]: > 100 µM | TGI [36]: > 100 µM | TGI [38]: 63.2 µM | TGI [58]: 91.3 µM | TGI [39]: 52.2 µM | TGI [40]: 82.3 µM | TGI [41]: 36.9 µM | TGI [42]: 54.8 µM | TGI [43]: > 100 µM | TGI [44]: 44.3 µM | TGI [45]: > 100 µM | TGI [46]: 67.4 µM | TGI [47]: > 100 µM | TGI [48]: 81.4 µM | TGI [49]: > 100 µM | TGI [50]: 65.6 µM | TGI [51]: > 100 µM | TGI [52]: > 100 µM | TGI [53]: 75.6 µM | TGI [54]: 56.7 µM | TGI [55]: 30.4 µM | TGI [56]: > 100 µM | TGI [57]: 50.7 µM

Source: PubChem BioAssay (NCI)
